The values below come from patent US10357493B2, “Metalloenzyme inhibitor compounds” (Selenity Therapeutics (Bermuda), Ltd., priority 2017, dated 2019).

For experiment [1], the target named is HDAC1 (Homo sapiens (Human), UniProt Q13547). Put plainly: HDAC1 enzymatic assay. It counts as biochemical. Conditions: read-out: Human HDAC1 IC50. An outline of the steps: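 HDAC1 activity was measured in duplicate 50 μl reactions containing 0.5 ng HDAC1, 10 uM of HDAC substrate, and test compound in buffer (50 mM Tris-HCl, pH 7.4, 137 mM NaCl, 2.7 mM KCl, 0.05% Tween 20, 5 μg BSA) with 1% DMSO, incubated 17 hours at room temperature. HDAC Developer was then added for 20 minutes and fluorescence read at 360/460 nm.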
Sequence of HDAC1 (Q13547 whole entry): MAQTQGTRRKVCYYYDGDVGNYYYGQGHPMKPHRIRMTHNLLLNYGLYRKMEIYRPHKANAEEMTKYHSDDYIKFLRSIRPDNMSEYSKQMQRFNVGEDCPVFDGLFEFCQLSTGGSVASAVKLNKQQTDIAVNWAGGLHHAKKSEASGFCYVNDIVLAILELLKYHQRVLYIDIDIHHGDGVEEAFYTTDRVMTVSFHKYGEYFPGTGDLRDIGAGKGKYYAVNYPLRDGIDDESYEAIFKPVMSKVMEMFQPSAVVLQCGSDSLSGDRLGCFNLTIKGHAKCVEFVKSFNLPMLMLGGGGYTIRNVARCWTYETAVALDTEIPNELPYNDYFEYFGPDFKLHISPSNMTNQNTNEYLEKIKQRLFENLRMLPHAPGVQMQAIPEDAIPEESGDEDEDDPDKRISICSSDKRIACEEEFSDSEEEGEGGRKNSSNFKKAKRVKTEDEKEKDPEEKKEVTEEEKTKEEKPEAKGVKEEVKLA

Experiment [2] concerns the target HDAC6 (Homo sapiens (Human), UniProt Q9UBN7). The experiment in a line: HDAC6 enzymatic assay. It counts as biochemical. Conditions: read-out: Human HDAC6 IC50. Summed up: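 Human HDAC6 activity was measured in duplicate 50 μl reactions holding 2 ng HDAC6, 10 uM of HDAC substrate and test compound in HDAC assay buffer (50 mM Tris-HCl, pH 7.4, 137 mM NaCl, 2.7 mM KCl, 0.05% Tween 20, 5 μg BSA) with 1% DMSO, for 17 hours at room temperature. HDAC Developer was added for 20 minutes before reading fluorescence at 360/460 nm.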

The structures appear in SMILES notation.

Sequence of HDAC6 (Q9UBN7 whole entry): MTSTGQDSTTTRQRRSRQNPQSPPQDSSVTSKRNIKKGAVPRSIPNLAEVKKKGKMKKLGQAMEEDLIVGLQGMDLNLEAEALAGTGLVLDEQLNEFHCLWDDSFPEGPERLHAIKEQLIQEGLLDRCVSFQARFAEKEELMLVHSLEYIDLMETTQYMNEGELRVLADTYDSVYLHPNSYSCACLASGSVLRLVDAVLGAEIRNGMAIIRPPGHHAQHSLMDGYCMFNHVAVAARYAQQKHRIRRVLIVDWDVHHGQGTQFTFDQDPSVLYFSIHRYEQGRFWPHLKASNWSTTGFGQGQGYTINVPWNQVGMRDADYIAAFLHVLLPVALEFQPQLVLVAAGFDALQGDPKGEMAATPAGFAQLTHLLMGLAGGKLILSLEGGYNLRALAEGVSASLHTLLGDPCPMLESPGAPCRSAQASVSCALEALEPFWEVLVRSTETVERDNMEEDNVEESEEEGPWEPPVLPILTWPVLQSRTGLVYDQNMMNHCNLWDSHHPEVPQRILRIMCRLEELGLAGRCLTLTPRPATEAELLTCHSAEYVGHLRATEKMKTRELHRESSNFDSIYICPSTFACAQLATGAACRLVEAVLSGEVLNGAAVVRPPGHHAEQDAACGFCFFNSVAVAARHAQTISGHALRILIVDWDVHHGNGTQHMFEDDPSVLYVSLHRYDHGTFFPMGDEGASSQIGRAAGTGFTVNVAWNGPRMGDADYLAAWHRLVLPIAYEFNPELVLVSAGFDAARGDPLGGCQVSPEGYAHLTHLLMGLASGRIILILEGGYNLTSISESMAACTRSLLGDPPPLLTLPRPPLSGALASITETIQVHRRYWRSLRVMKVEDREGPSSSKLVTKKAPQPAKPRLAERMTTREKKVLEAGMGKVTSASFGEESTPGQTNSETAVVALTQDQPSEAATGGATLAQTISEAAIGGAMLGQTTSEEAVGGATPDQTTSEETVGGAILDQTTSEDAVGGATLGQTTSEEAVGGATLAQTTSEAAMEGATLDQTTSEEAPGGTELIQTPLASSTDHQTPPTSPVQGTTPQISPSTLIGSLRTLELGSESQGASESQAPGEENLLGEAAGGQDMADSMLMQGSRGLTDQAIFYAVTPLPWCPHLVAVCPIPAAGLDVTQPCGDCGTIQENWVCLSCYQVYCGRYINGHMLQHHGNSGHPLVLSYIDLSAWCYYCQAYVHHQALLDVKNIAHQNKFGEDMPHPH

Take `Fc1ccccc1C1(Nc2ncc(-c3nnc(C(F)F)o3)cn2)CC1` [Example 56, 5-(5-(difluoromethyl)-1,3,4-oxadiazol-2-yl)-N-(1-(2-fluorophenyl)cyclopropyl)pyrimidin-2-amine]: the IC50 is above 100000 nM in experiment [1] and 6 nM in experiment [2].

Regarding `Fc1cccc(C2(Nc3ncc(-c4nnc(C(F)F)o4)cn3)CC2)c1` [Example 57, 5-(5-(difluoromethyl)-1,3,4-oxadiazol-2-yl)-N-(1-(3-fluorophenyl)cyclopropyl)pyrimidin-2-amine], the half-inhibitory concentration (IC50) in experiment [1] was above 100000 nM; in experiment [2], 15 nM.

Turning to `FC(F)c1nnc(-c2cnc(NC3(c4ccccc4C(F)(F)F)CC3)nc2)o1` [Example 58, 5-(5-(difluoromethyl)-1,3,4-oxadiazol-2-yl)-N-(1-(2-(trifluoromethyl)phenyl)cyclopropyl) pyrimidin-2-amine], the half-maximal inhibitory concentration (IC50) was above 30000 nM in experiment [1] and 40 nM in experiment [2].

Consider `Fc1ccc(C2(Nc3ncc(-c4nnc(C(F)F)o4)cn3)CC2)cc1F` [Example 59, 5-(5-(difluoromethyl)-1,3,4-oxadiazol-2-yl)-N-(1-(3,4-difluorophenyl)cyclopropyl) pyrimidin-2-amine], for which the concentration for half-maximal inhibition (IC50) was above 30000 nM in experiment [1] and 21 nM in experiment [2].

Take `Fc1cccc(C2(Nc3ncc(-c4nnc(C(F)F)o4)cn3)CC2)c1F` [Example 60, 5-(5-(difluoromethyl)-1,3,4-oxadiazol-2-yl)-N-(1-(2,3-difluorophenyl)cyclopropyl) pyrimidin-2-amine]: the IC50 in experiment [1] is above 30000 nM; in experiment [2], 22 nM.

Consider `Fc1ccc(F)c(C2(Nc3ncc(-c4nnc(C(F)F)o4)cn3)CC2)c1` [Example 61, 5-(5-(difluoromethyl)-1,3,4-oxadiazol-2-yl)-N-(1-(2,5-difluorophenyl)cyclopropyl) pyrimidin-2-amine], for which the results for the IC50 in experiment [1] and in experiment [2] were above 30000 nM and 22 nM, respectively.

As to `Fc1ccc(C2(Nc3ncc(-c4nnc(C(F)F)o4)cn3)CC2)c(C(F)(F)F)c1` [Example 63, 5-(5-(difluoromethyl)-1,3,4-oxadiazol-2-yl)-N-(1-(4-fluoro-2-(trifluoromethyl)phenyl)cyclopropyl) pyrimidin-2-amine], the IC50 is above 30000 nM in experiment [1] and 88 nM in experiment [2].

`FC(F)c1nnc(-c2cnc(NC3(c4ccc(Br)nc4)CC3)nc2)o1` [Example 64, N-(1-(6-bromopyridin-3-yl)cyclopropyl)-5-(5-(difluoromethyl)-1,3,4-oxadiazol-2-yl)pyrimidin-2-amine]: the IC50 is above 30000 nM in experiment [1] and 28 nM in experiment [2].

Regarding `FC(F)c1nnc(-c2cnc(NC3(c4cccnc4)CC3)nc2)o1` [Example 65, 5-(5-(difluoromethyl)-1,3,4-oxadiazol-2-yl)-N-(1-(pyridin-3-yl)cyclopropyl)pyrimidin-2-amine], the results for the half-maximal inhibitory concentration (IC50) in experiment [1] and in experiment [2] were above 30000 nM and 390 nM, respectively.

With `Fc1cc(Cl)ccc1C1(Nc2ncc(-c3nnc(C(F)F)o3)cn2)CC1` [Example 66], the IC50 was above 30000 nM in experiment [1] and 42 nM in experiment [2].

In the case of `Fc1ccc(C2(Nc3ncc(-c4nnc(C(F)F)o4)cn3)CC2)nc1` [Example 67, 5-(5-(difluoromethyl)-1,3,4-oxadiazol-2-yl)-N-(1-(5-fluoropyridin-2-yl)cyclopropyl) pyrimidin-2-amine], the IC50 was above 30000 nM in experiment [1] and 190 nM in experiment [2].

`FC(F)c1nnc(-c2cnc(NC3(c4ccc(OCC(F)(F)F)cc4)CC3)nc2)o1` [Example 68, 5-(5-(difluoromethyl)-1,3,4-oxadiazol-2-yl)-N-(1-(4-(2,2,2-trifluoroethoxy)phenyl)cyclopropyl) pyrimidin-2-amine]: the figures for the IC50 in experiment [1] and in experiment [2] were above 30000 nM and 100 nM, respectively.

With `CS(=O)(=O)NCc1ccc(C2(Nc3ncc(-c4nnc(C(F)F)o4)cn3)CC2)cc1` [Example 69, N-(4-(1-((5-(5-(difluoromethyl)-1,3,4-oxadiazol-2-yl)pyrimidin-2-yl)amino)cyclopropyl)benzyl) methanesulfonamide], the IC50 in experiment [1] was above 30000 nM; in experiment [2] it was 130 nM.

`Fc1cc(OC(F)(F)F)ccc1C1(Nc2ncc(-c3nnc(C(F)F)o3)cn2)CC1` [Example 70, 5-(5-(difluoromethyl)-1,3,4-oxadiazol-2-yl)-N-(1-(2-fluoro-4-(trifluoromethoxy)phenyl)cyclopropyl)pyrimidin-2-amine]: the concentration for half-maximal inhibition (IC50) in experiment [1] is above 30000 nM; in experiment [2], 100 nM.

Turning to `Fc1cc(C(F)(F)F)ccc1C1(Nc2ncc(-c3nnc(C(F)F)o3)cn2)CC1` [Example 71, 5-(5-(difluoromethyl)-1,3,4-oxadiazol-2-yl)-N-(1-(2-fluoro-4-(trifluoromethyl)phenyl)cyclopropyl)pyrimidin-2-amine], the 50% inhibitory concentration (IC50) in experiment [1] was above 30000 nM; in experiment [2] it was 100 nM.

As for `Fc1cc(F)cc(C2(Nc3ncc(-c4nnc(C(F)F)o4)cn3)CC2)c1` [Example 72, 5-(5-(difluoromethyl)-1,3,4-oxadiazol-2-yl)-N-(1-(3,5-difluorophenyl)cyclopropyl) pyrimidin-2-amine], the results for the IC50 in experiment [1] and in experiment [2] were above 30000 nM and 35 nM, respectively.

As to `Fc1c(Cl)cccc1C1(Nc2ncc(-c3nnc(C(F)F)o3)cn2)CC1` [Example 73, N-(1-(3-chloro-2-fluorophenyl)cyclopropyl)-5-(5-(difluoromethyl)-1,3,4-oxadiazol-2-yl)pyrimidin-2-amine], the IC50 in experiment [1] was above 30000 nM; in experiment [2] it was 17 nM.

As to `Fc1cc(F)c(C2(Nc3ncc(-c4nnc(C(F)F)o4)cn3)CC2)c(F)c1` [Example 74, 5-(5-(difluoromethyl)-1,3,4-oxadiazol-2-yl)-N-(1-(2,4,6-trifluorophenyl)cyclopropyl) pyrimidin-2-amine], the IC50 in experiment [1] was above 30000 nM; in experiment [2], 19 nM.

Turning to `Fc1ccc(OC(F)(F)F)cc1C1(Nc2ncc(-c3nnc(C(F)F)o3)cn2)CC1` [Example 75, 5-(5-(difluoromethyl)-1,3,4-oxadiazol-2-yl)-N-(1-(2-fluoro-5-(trifluoromethoxy)phenyl)cyclopropyl)pyrimidin-2-amine], the IC50 in experiment [1] is above 30000 nM; in experiment [2] it was 38 nM.

Take `Fc1ccc(Cl)cc1C1(Nc2ncc(-c3nnc(C(F)F)o3)cn2)CC1` [Example 76, N-(1-(5-chloro-2-fluorophenyl)cyclopropyl)-5-(5-(difluoromethyl)-1,3,4-oxadiazol-2-yl)pyrimidin-2-amine]: the IC50 in experiment [1] was above 30000 nM; in experiment [2] it was 14 nM.

Consider `Cc1cccc(C2(Nc3ncc(-c4nnc(C(F)F)o4)cn3)CC2)c1Cl` [Example 77, N-(1-(2-chloro-3-methylphenyl)cyclopropyl)-5-(5-(difluoromethyl)-1,3,4-oxadiazol-2-yl)pyrimidin-2-amine], for which the results for the IC50 in experiment [1] and in experiment [2] were above 30000 nM and 28 nM, respectively.

Take `O=C(NCC(Nc1ncc(-c2nnc(C(F)F)o2)cn1)c1ccc(F)cc1)c1ccccc1` (stereo not shown) [Example 79, N-(2-((5-(5-(difluoromethyl)-1,3,4-oxadiazol-2-yl)pyrimidin-2-yl)amino)-2-(4-fluorophenyl)ethyl)benzamide]: the IC50 in experiment [1] is above 30000 nM; in experiment [2], 76 nM.

In the case of `Fc1ccc(Cl)c(C2(Nc3ncc(-c4nnc(C(F)F)o4)cn3)CC2)c1` [Example 80, N-(1-(2-chloro-5-fluorophenyl)cyclopropyl)-5-(5-(difluoromethyl)-1,3,4-oxadiazol-2-yl)pyrimidin-2-amine], the results for the IC50 in experiment [1] and in experiment [2] were above 30000 nM and 23 nM, respectively.

As for `FC(F)c1nnc(-c2cnc(NC3(c4cc(C(F)(F)F)ccc4Cl)CC3)nc2)o1` [Example 81, N-(1-(2-chloro-5-(trifluoromethyl)phenyl)cyclopropyl)-5-(5-(difluoromethyl)-1,3,4-oxadiazol-2-yl)pyrimidin-2-amine], the IC50 in experiment [1] was above 30000 nM; in experiment [2] it was 210 nM.

On to `FC(F)c1nnc(-c2cnc(NC3(c4ccnc(Br)c4)CC3)nc2)o1` [Example 82, N-(1-(2-bromopyridin-4-yl)cyclopropyl)-5-(5-(difluoromethyl)-1,3,4-oxadiazol-2-yl)pyrimidin-2-amine], for which the IC50 in experiment [1] was above 30000 nM; in experiment [2] it was 35 nM.

Regarding `N#Cc1cc(C2(Nc3ncc(-c4nnc(C(F)F)o4)cn3)CC2)ccn1` [Example 83, 4-(1-((5-(5-(difluoromethyl)-1,3,4-oxadiazol-2-yl)pyrimidin-2-yl)amino)cyclopropyl)picolinonitrile], the IC50 in experiment [1] was above 30000 nM; in experiment [2] it was 160 nM.

For the compound `Fc1cc(OCC(F)(F)F)ccc1C1(Nc2ncc(-c3nnc(C(F)F)o3)cn2)CC1` [Example 84, 5-(5-(difluoromethyl)-1,3,4-oxadiazol-2-yl)-N-(1-(2-fluoro-4-(2,2,2-trifluoroethoxy)phenyl)cyclopropyl)pyrimidin-2-amine], the 50% inhibitory concentration (IC50) was above 30000 nM in experiment [1] and 77 nM in experiment [2].

With `FC(F)c1nnc(-c2cnc(NC3(c4cccc(C(F)(F)F)c4Cl)CC3)nc2)o1` [Example 85, N-(1-(2-chloro-3-(trifluoromethyl)phenyl)cyclopropyl)-5-(5-(difluoromethyl)-1,3,4-oxadiazol-2-yl)pyrimidin-2-amine], the half-maximal inhibitory concentration (IC50) was above 30000 nM in experiment [1] and 62 nM in experiment [2].

With `FC(F)Oc1cccc(C2(Nc3ncc(-c4nnc(C(F)F)o4)cn3)CC2)c1Cl` [Example 86, N-(1-(2-chloro-3-(difluoromethoxy)phenyl)cyclopropyl)-5-(5-(difluoromethyl)-1,3,4-oxadiazol-2-yl)pyrimidin-2-amine], the half-inhibitory concentration (IC50) in experiment [1] was above 30000 nM; in experiment [2], 28 nM.

As usually defined, the IC50 is the midpoint of a concentration-inhibition curve.
